Experiments:
[1] = Solubilization of dyes in aqueous polymer solution vs water, TLC spot comparison; settings: for concentration in 50 mg/ml polymer: 50 mg/ml aqueous C16-Polymer A (Example 1), approximate, from TLC spot intensity
[2] = test system: ATCC VR-1520 (H2N1) Human influenza virus

Row | SMILES | concentration in 50 mg/ml polymer [1] | concentration in H2O ([1]; deionized water, unbuffered, room temperature) | body weight loss ([2]; 7 days) | increase in survival time ([2]; mouse, in vivo) | solubility ([1]; deionized water (unbuffered), water, thermodynamic from solid)
1 | Cc1ccccc1/N=N/c1ccc(/N=N/c2c(O)ccc3ccccc23)c(C)c1 [Sudan IV] | approximately 0.2 mg/ml | 0 ng/mL | – | – | –
2 | COC1(C(=O)O)CC(O)C(N)C(C(O)C(O)CO)O1 (stereo not drawn) [positive control, neuraminic acid β-methyl glycoside] | – | – | −9.8% | 2.94 h | –
3 | O=C1OC2(c3cc(Cl)c(O)cc3Oc3cc(O)c(Cl)cc32)c2ccccc21 [Dichlorofluorescein, dichlorofluorescein] | approximately 5 mg/ml | – | – | – | ≥ 10 µg/mL
